Key:
[1] = test system: isolated-perfused mouse lungs preconstricted with U46619; experiment: Pulmonary vasodilator response to NO inhalation in isolated, perfused and ventilated mouse lungs preconstricted with U46619; type: in vivo; details: for pulmonary vasodilator response to subsequent ventilation with NO after prolonged NO breathing: prolonged breathing of 20 ppm NO
Protocol: Isolated, Perfused, and Ventilated Mouse Lung Model Mice were killed by intraperitoneal injection of pentobarbital sodium (200 mg/kg body weight) and placed in a 37° C. water-jacketed chamber (Isolated Perfused Lung Size 1 Type 839; Hugo-Sachs Elektronik, March-Hugstetten, Germany). The trachea was isolated and intubated, and the lungs were ventilated with 21% O2, 6% CO2 and 73% N2 using a volume-controlled ventilator (model 687; Harvard Apparatus, South Natick, Mass.) at a ventilatory rate of 85 breaths/min and 2 cm H2O end-expiratory pressure. The tidal volume was adjusted to provide a peak inspiratory pressure of 10 cm H2O throughout each study. The lungs were exposed via a midline sternotomy, and a ligataure was placaed around the aorticopulmonary outflow tract. After injection of 10 IU heparin into the right ventricle, the pulmonary artery was cannulated with a stainless steel cannula (1 mm ID) via the right ventricle. The pulmonary venous effluent was drained via a stainless steel cannula (1 mm ID) placed through the apex of the left ventricle across the mitral valve and into the left atrium. Left atrial pressure was maintained at 2 mmHg. Lungs were perfused at a constant flow (50 ml. kg body weight^−1. min^−1; Ismatec Reglo-Analogue roller pump; Laboratoriumstechnik GmbH, Wertheim-Mondfeld, Germany) with a non-recirculating system at 37° C. The perfusate used was Hanks' Balanced Salt Solution (GibcoBRL, Grand Island, N.Y.) containing 1.26 mM CaCl2, 5.33 mM KCl, 0.44 mM KH2PO4, 0.50 mM MgCl2, 0.41 mM MgSO4, 138.0 mM NaCl, 4.0 mM NaHCO3, 0.3 mM Na2HPO4, and 5.6 mM glucose. Bovine serum albumin, 5%, and dextran, 5% (both from Sigma Chemical Co., St. Louis, Mo.), were added to the perfusate to prevent pulmonary edema, in the isolated, perfused, and ventilated rat lung, essentially as described in Holzmann et al., 1996, Am. J. Physiol. 271:L981-L986. Indomethacin, […] (Sigma Chemical Co.), and 1 mM L-NAME (Sigma Chemical Co.) were added to the perfusate to inhibit endogenous prostaglandin and NO synthesis, respectively. Sodium bicarbonate was added to adjust the perfusate pH to 7.34-7.43.
Pulmonary artery pressure (PAP) and left atrial pressure were measured via saline-filled membrane pressure transducers (Argon, Athens, Tex.) connected to a side port of the inflow and outflow cannulae, respectively. Airway pressure (Paw) was measured using a differential pressure transducer (model MP-45-32-871; Validyne Engineering Corp., Northridge, Calif.) connected to the inspiratory limb just before the Y piece. Pressure transducers were connected to a biomedical amplifier (Hewlett Packard 7754B, Andover, Mass.), and data were recorded at 150 Hz on a personal computer using an analog-to-digital interface with a data acquisition system (DI-220; Dataq Instruments, Akron, Ohio). The system was calibrated before each experiment.
For NO inhalation, NO gas (800 or 80 ppm NO in nitrogen, Airco, Murray Hill, N.J.) was blended (Oxygen Blender; Bird Corporation, Palm Springs, Calif.) with oxygen, carbon dioxide, and nitrogen to achieve a final concentration of 21% O2, 6% CO2, and the desired NO concentration. NO and higher oxidative states of NO (NOx; CLD 700 AL; Eco Physics, Dürmten, Switzerland), oxygen (Hudson Ventronics Ddivision, Temecula, Calif.), and carbon dioxide (Datex CO2 monitor; Puritan-Bennett Corpration, Los Angeles, Calif.) concentrations were monitored continuously.
Pulmonary Vascular Response to NO inhalation after Lipopolysaccharide Challenge Wild-type mice and NOS2-deficient mice were injected intraperitoneally with 50 mg/kg body weight Escherichia coli 0111:B4 lipopolysaccharide (LPS; Difco Laboratories, Detroit, Mich.) dissolved in saline 16 h before isolated lung perfusion. This time point was chosen based on previous studies in rats (Holzmann et al., 1996, Am. J. Physiol. 271:L981-L986). Untreated wild-type and NOS2-deficient mice served as controls. […]

[2] = Wet-to-dry lung weight ratio after isolated lung perfusion (Example 1); type: in vivo, mouse; details: exposure to NO inhalation for 16 h
Protocol: Wet-to-Dry Lung Weight Ratio At the end of each experiment, both lungs, excluding hilar structures, were excised and weighed (wet weight). Thereafter, the lungs were dried in a microwave oven for 60 min, as previously described (Holzmann et al., supra), and then reweighed (dry weight). Wet-to-dry lung weight ratios were calculated by dividing the wet weight by the dry weight.

Question: Which “effect of NO inhalation on PAP” value ([1]; 0.4, 4 and 40 ppm NO for 5 min each, all groups) does the source give for [N]=O [NO, Nitric oxide] here?
Answer: decreased the PAP in a dose-dependent manner

Question: What about the “ΔPAP (change in PAP by inhaled NO as percentage of U46619-induced increase)” value ([1]; 0.4 ppm NO, lipopolysaccharide-pretreated NOS2-deficient mice exposed to 20 ppm ambient NO for 16 h) of the same molecule?
Answer: −24±4%

Question: And the “ΔPAP (change in PAP by inhaled NO as percentage of U46619-induced increase)” value ([1]; 0.4 ppm NO, untreated control NOS2-deficient mice exposed to 20 ppm ambient NO for 16 h)?
Answer: −42±4%

Question: What about the “ΔPAP (change in PAP by inhaled NO as percentage of U46619-induced increase)” value ([1]; 4 ppm NO, lipopolysaccharide-pretreated NOS2-deficient mice exposed to 20 ppm ambient NO for 16 h) of the same molecule?
Answer: −39±5%

Question: And the “ΔPAP (change in PAP by inhaled NO as percentage of U46619-induced increase)” value ([1]; 4 ppm NO, untreated control NOS2-deficient mice exposed to 20 ppm ambient NO for 16 h)?
Answer: −58±4%

Question: And the “ΔPAP (change in PAP by inhaled NO as percentage of U46619-induced increase)” value ([1]; 40 ppm NO, lipopolysaccharide-pretreated NOS2-deficient mice exposed to 20 ppm ambient NO for 16 h)?
Answer: −55±3%

Question: What about the “ΔPAP (change in PAP by inhaled NO as percentage of U46619-induced increase)” value ([1]; 40 ppm NO, untreated control NOS2-deficient mice exposed to 20 ppm ambient NO for 16 h) of the same molecule?
Answer: −62±5%

Question: And the “subsequent responsiveness to short-term inhaled NO after prolonged NO breathing” value ([1]; breathing 0.2 ppm NO for 16 h after lipopolysaccharide, NOS2-deficient mice)?
Answer: did not cause subsequent hyporesponsiveness

Question: And the “subsequent vasodilator response to 0.4 ppm NO inhalation after prolonged NO breathing” value ([1]; breathing 2 ppm NO for 16 h after lipopolysaccharide, NOS2-deficient mice, compared with control mice)?
Answer: decreased the vasodilator response

Question: What about the “pulmonary vasodilator response to subsequent ventilation with NO after prolonged NO breathing” value ([1]; endotoxin-challenged NOS2-deficient mice) of the same molecule?
Answer: markedly impaired the pulmonary vasodilator response

Question: What about the “pulmonary vasodilator response to subsequent ventilation with NO after prolonged NO breathing” value ([1]; untreated wild-type or NOS2-deficient mice) of the same molecule?
Answer: does not impair the pulmonary vasodilator response

Question: What about the “wet-to-dry lung weight ratio” value ([2]; lipopolysaccharide-pretreated NOS2-deficient mice) of the same molecule?
Answer: 5.1±0.2

Question: And the “wet-to-dry lung weight ratio” value ([2]; lipopolysaccharide-pretreated wild-type mice)?
Answer: 4.9±0.1

Question: What about the “wet-to-dry lung weight ratio” value ([2]; untreated NOS2-deficient mice) of the same molecule?
Answer: 4.8±0.1

Question: What about the “wet-to-dry lung weight ratio” value ([2]; untreated wild-type mice) of the same molecule?
Answer: 4.5±0.3

Source: US6935334B2, “Enhancing therapeutic effectiveness of nitric oxide inhalation” (The General Hospital Corporation, priority 2000, dated 2005)
